Source: US8802635B2, “Antioxidant, anti-inflammatory, anti-radiation, metal chelating compounds and uses thereof” (Oneday—Biotech And Pharma Ltd., priority 2011, dated 2014)
Non-standard residues stand in square brackets, D forms with d. βAla = NCCC(=O)O

Test system: granulocytes at the peritoneal lavages
Assay: Ovalbumin-induced hypersensitivity: percentage of granulocytes in peritoneal lavage (FACS)
Assay type: in vivo, mice
Conditions: 125 mg/kg; Mann-Whitney with Bonferroni correction, p<=0.0125
Experimental: Hypersensitivity was induced as described in Example 5. The mice were treated according to the above protocol with PBS alone (“PBS”, no OVA and no Alum), OVA (“OVA”), OVA+CB3 104 mg/kg, OVA+DY-66 83 mg/kg and OVA+DY-66 125 mg/kg. In all groups, 9 mice were used except for OVA+DY-66 83 mg/kg, where 10 mice were used.
At day 16 the animals were sacrificed, the peritoneum was washed with 4-5 ml of sterile PBS, centrifuged and the cells were re-suspended in sterile PBS containing FCS 2%.
Percentage of granulocytes at the peritoneal lavages were measured by the use of FACS machine analysis of all cells during 10 second flow, followed by a careful analysis of the FACS dot plots.

N-acetyl-Cys-βAla-His-Cys-NH2 (Ac-C[βAla]HC-NH2; cysteine pairing not given here) [DY-66]
difference in percentage of granulocytes (medians) between OVA and OVA+peptide: highly significant
